{"source": "paper PMC8860381", "about": "(Molecular Cell, 2022)", "molecules": {"B1": {"name": "GGGC(*UC)48 RNA (ssRNA)", "RNA": "GGGCUCUCUCUCUCUCUCUCUCUCUCUCUCUCUCUCUCUCUCUCUCUCUCUCUCUCUCUCUCUCUCUCUCUCUCUCUCUCUCUCUCUCUCUCUCUCUCUC"}}, "key": {"[1]": {"biological_target": "T1, hSKI complex (hSKI-WT; hSKI2-hSKI3-hSKI8) (Homo sapiens, UniProt Q15477, E424Q)", "T1 construct": "gene SKIC2; full-length subunits co-expressed in Sf21 insect cells; 3C-cleavable 10xHis tag on TTC37 N-terminus, tag removed; with Superkiller complex protein 3 (tetratricopeptide repeat protein 37); Superkiller complex protein 8 (WD repeat-containing protein 61)", "assay": "pyruvate kinase/lactate dehydrogenase-coupled ATPase assay", "format": "biochemical", "details": "10 μg/mL poly(U) RNA, 50 nM complex, 5 mM MgAc2, 50 mM KAc, pH 7.5, 37°C"}, "hSKI-Δarch": {"biological_target": "T2, hSKI-Δarch (Homo sapiens, UniProt Q15477)", "T2 construct": "gene SKIC2; Sf21 insect cells; 10xHis tag on TTC37 removed; with Superkiller complex protein 3 (tetratricopeptide repeat protein 37); Superkiller complex protein 8 (WD repeat-containing protein 61)", "assay": "pyruvate kinase/lactate dehydrogenase-coupled ATPase assay", "format": "biochemical", "details": "10 μg/mL poly(U) RNA, 50 nM complex, 5 mM MgAc2, 50 mM KAc, pH 7.5, 37°C", "text": "pyruvate kinase/lactate dehydrogenase-coupled ATPase assay on hSKI-Δarch | removal of the hSKI2 arch domain led only to a minor increase in the ATPase activity"}, "[2]": {"biological_target": "T3, hSKI complex (hSKI-WT; hSKI2-hSKI3-hSKI8) (Homo sapiens, UniProt Q15477, V341G)", "T3 construct": "gene SKIC2; full-length subunits co-expressed in Sf21 insect cells; 3C-cleavable 10xHis tag on TTC37 N-terminus, tag removed; with Superkiller complex protein 3 (tetratricopeptide repeat protein 37); Superkiller complex protein 8 (WD repeat-containing protein 61)", "assay": "pyruvate kinase/lactate dehydrogenase-coupled ATPase assay", "format": "biochemical", "details": "10 μg/mL poly(U) RNA, 50 nM complex, 5 mM MgAc2, 50 mM KAc, pH 7.5, 37°C"}, "[3]": {"tested_on": "Nc1ncnc2c1ncn2[C@@H]1O[C@H](COP(=O)(O)OP(=O)(O)OP(=O)(O)O)[C@@H](O)[C@H]1O", "assay": "pyruvate kinase/lactate dehydrogenase-coupled ATPase assay", "format": "biochemical, Homo sapiens", "details": "10 μg/mL poly(U) RNA, 50 nM complex, 5 mM MgAc2, 50 mM KAc, pH 7.5, 37°C"}, "[4]": {"biological_target": "hEXO10c (hEXO9 core + hDIS3L D486N) (Homo sapiens, UniProt Q8TF46;Q9Y3B2;Q13868;Q9NQT5;Q9NPD3;Q9NQT4;Q5RKV6;Q15024;Q96B26;Q06265 …, D486N)", "assay": "RNase protection (benzonase); hEXO10c alone, characteristic footprint, lane 1; Binding buffers not in material (Methods sections for RNase protection and cryo-EM sample preparation are empty); hSKI storage buffer 20 mM Hepes pH 7.5, 100 mM NaCl, 2 mM DTT", "details": "protein: recombinant; tags: TwinStrep-3C on DIS3L N-terminus; copies: 1;1;1;1;1;1;1;1;1;1; label: 32P body-labelled (alpha-32P UTP); single strand"}}}
{"molecule": "Nc1ncnc2c1ncn2[C@@H]1O[C@H](COP(=O)(O)OP(=O)(O)OP(=O)(O)O)[C@@H](O)[C@H]1O", "note": "[ATP]", "values": [{"measurement": "ATPase activity abolished", "setting": "[1]", "result": "the ATPase activity of hSKI was abolished in the case of a mutant complex"}, {"measurement": "Km", "setting": "hSKI-Δarch", "result": 121, "unit": "µM"}, {"measurement": "inactive in ATPase assay", "setting": "[2]", "result": "V341G substitution (hSKI-THES) and indeed found that it is inactive in ATPase assays"}]}
{"molecule": "hSKI complex (hSKI-WT; hSKI2-hSKI3-hSKI8) (Homo sapiens)", "values": [{"measurement": "Km", "setting": "[3]", "result": 149.4, "unit": "µM"}, {"measurement": "kcat", "setting": "[3]", "result": 0.685, "unit": "s⁻¹"}]}
{"molecule": "B1", "values": [{"measurement": "binding result", "setting": "[4]", "result": "binds"}]}
